# Source: patent publication US10157261B2, “Transcriptome-wide design of selective, bioactive small molecules targeting RNA” (The Scripps Research Institute, priority 2013, dated 2018)
# Experiments:
# [1] = molecular target: 5′UUU/3′AUA RNA (loop near the processing site of miRNA-96 precursor); assay: in solution, fluorescence-based binding affinity assay; parameters: species or system human
# Description: (§1) Dissociation constants were determined using an in solution, fluorescence-based assay (Disney et al., J. Am. Chem. Soc. 130, 11185-11194 (2008)). The RNA of interest was folded in 1× Assay Buffer (8 mM Na2HPO4, pH 7.0, 190 mM NaCl, 1 mM EDTA and 40 μg/mL BSA) by heating at 60° C. for 5 min and slowly cooling to room temperature. A selected fluorescently labeled compound was added to a final concentration of 50 nM for compounds 1-Fl, 4-Fl, and 5-Fl or 500 nM for compound 2. Serial dilutions (1:2) were then completed in 1× Assay Buffer supplemented with 50 nM of compounds 1-Fl, 4-Fl, or 5-Fl or 500 nM of 2. The solutions were incubated for 30 min at room temperature and then transferred to a 96-well plate and fluorescence intensity measured. The change in fluorescence intensity as a function of RNA concentration was fit to the following equation (Wang & Rando, Chem. Biol. 2, 281-290. (1995)): I=I0+0.5Δε(([FL]0+[RNA]0+Kt)−(([FL]0+[RNA]0+Kt)^2−4[FL]0[RNA]0)^0.5) where I and I0 are the observed fluorescence intensity in the presence and absence of RNA respectively, Δε is the difference between the fluorescence intensity in the absence of RNA and in the presence of infinite RNA concentration, [FL]0 and [RNA]0 are the concentrations of small molecule and RNA, respectively, and Kt is the dissociation constant.
# (§2) The targetable loops (motifs) were embedded into C1 (FIG. 1) so that affinity measurements could be completed. The secondary structures of the RNAs as predicted by RNAstructure (Mathews et al., Proc. Natl. Acad. Sci. U.S.A. 101, 7287-7292 (2004).) and representative binding curves are shown in (FIG. 4D-4I).
# 5′CGA/3′GGU RNA = assay: as above; parameters: species or system human; settings: read-out: Dissociation constants, 5′CGA/3′GGU
# Description: as §1, §2
# 5′CGAUU/3′GGUAUA RNA = assay: as above; parameters: species or system human; settings: read-out: Dissociation constants, 5′CGAUU/3′GGUAUA
# Description: as §1, §2
# miR-96 = assay: qRT-PCR of mature miRNA in MCF7 cells; assay type: cell-based, human
# Description: (§3) MCF7 cells were cultured in either 6-well or 12-well plates, and total RNA was extracted using TRIzol LS reagent (Ambion) per the manufacturer's protocol. Approximately 200 ng of total RNA was used in reverse transcription (RT) reactions, which were completed using a Taqman MicroRNA RT Kit (Applied Biosystems) or a miScript II RT kit (Qiagen) per the manufacturer's protocol. qRT-PCR was performed on a 7900HT Fast Real Time PCR System (Applied Biosystem) using Taqman Universal PCR Master Mix or power SYBR green master mix (Applied Biosystems). All primer sets for mature miRNAs were purchased from Applied Biosystems. The expression level of mature miRNAs was normalized to U6 small nuclear RNA.
# (§4) Pri-, pre-, and mature miR-96 RT-PCR products were analyzed on a denaturing 10% polyacrylamide gel stained with ethidium bromide. Expression levels were normalized to GAPDH.
# H Hairpin (DNA hairpin) = assay: in solution, fluorescence-based binding affinity assay; settings: read-out: Dissociation constants, H Hairpin
# Description: as §1, with “constant. […]” for “constant.”
# C1 (cassette RNA) = assay: as above; settings: read-out: Dissociation constants, C1
# Description: as §1, with “constant. […]” for “constant.”
# pre-miR-96 = assay: qRT-PCR of pre-miR-96 in MCF7 cells; assay type: cell-based, human; settings: 50 nM
# Description: as §4
# [2] = tested on: MCF10A (healthy breast cells); assay: Annexin V/PI assay; assay type: cell-based, human; settings: 50 nM, 72 hours
# Description: Annexin V/PI Assays: MDA MB 231 or MCF-10A cells were grown in 6-well plates to 40-50% confluency. The cells were incubated with 50 nM of small molecule for 72 h and then detached from the surface using accutase. They were washed twice each with ice cold 1×DPBS and 1× Annexin Binding Buffer (50 mM Hepes (pH 7.4), 700 mM NaCl and 12.5 mM CaCl2). The cells were resuspended in 100 μL 1× Annexin Binding Buffer, and then 5 μL Annexin V-APC (eBioscience) were added. The solution was incubated for 10 min at room temperature followed by washing with 1× Annexin Binding Buffer. The cells were then stained with 1 μg/mL propidium iodide in 300 μL of 1× Annexin Binding Buffer for 15 min at room temperature. Flow cytometry was performed using a BD LSRII instrument (BD Biosciences). At least 10,000 events were used for analysis.
# FOXO1 protein = assay: Western blotting; assay type: cell-based, human; settings: 50 nM, MCF7 cells
# Description: MCF7 cells were grown in 6-well plates to ˜80% confluency in complete growth medium. […] Total protein was extracted using M-PER Mammalian Protein Extraction Reagent (Pierce Biotechnology) using the manufacturer's protocol. Extracted total protein was quantified using a Micro BCA Protein Assay Kit (Pierce Biotechnology). Approximately 40 μg of total protein was resolved on an 8% SDS-polyacrylamide gel, and then transferred to a PVDF membrane. The membrane was briefly washed with 1× Tris-buffered saline (TBS), and then blocked in 5% milk in 1×TBST (1×TBS containing 0.1% Tween-20) for 1 h at room temperature. The membrane was then incubated in 1:1000 FOXO1 primary antibodies (Cell Signaling Technology) in 1×TBST containing 3% BSA overnight at 4° C. The membrane was washed with 1×TBST and incubated with 1:2000 anti-rabbit IgG horseradish-peroxidase secondary antibody conjugate (Cell Signaling Technology) in 1×TBS for 1 h at room temperature. After washing with 1×TBST, protein expression was quantified using SuperSignal West Pico Chemiluminescent Substrate (Pierce Biotechnology) per the manufacturer's protocol. The membrane was then stripped using 1× Stripping Buffer (200 mM glycine, pH 2.2 and 0.1% SDS) followed by washing in 1×TBS. […] Image J software from the National Institutes of Health was used to quantify band intensities.
# pri-miR-96 = assay: qRT-PCR of pri-miR-96 in MCF7 cells; assay type: cell-based, human
# Description: as §4
# miR-183 = assay: qRT-PCR of mature miRNA in MCF7 cells; assay type: cell-based, human; settings: 40 μM, 20 h
# Description: as §3
# miR-182 = assay: qRT-PCR of mature miRNA in MCF7 cells; assay type: cell-based, human; settings: 40 μM, 20 h
# Description: as §3
# MCF7 cells = assay: APO BrdU TUNEL assay; assay type: cell-based, human; settings: 40 μM
# Description: ON-TARGETplus SMARTpool FOXO1 siRNA and ONTARGETplus GAPD Control Pool were purchased from Dharmacon (Thermo Scientific) and were used at a final concentration of 100 nM. MCF7 cells were reverse transfected in a 6-well plate using Lipofectamine RNAiMAX reagent (Invitrogen) per the manufacturer's protocol.
# MCF7 cells were grown in 6-well plates to 70-80% confluency. For experiments in which RNAi was used to knock down FOXO1 or GAPDH expression, the cells were first transfected as described above. Cells were treated with small molecules for 20 h followed by completion of an APO BrdU TUNEL assay (Molecular Probes) per the manufacturer's protocol. Flow cytometry was performed using a BD LSRII instrument (BD Biosciences). At least 10,000 events were used for analysis.
# [3] = tested on: miR-96-FOXO1 luciferase model system; assay: Dual luciferase assay, miR-96 3′ UTR target; assay type: cell-based, human; settings: 40 μM, MCF7 cells
# Description: MCF7 cells were grown in 96-well plates to ˜80% confluency in complete growth medium. The cells were transiently transfected with 100 ng of plasmid encoding either the miR-96 3′ UTR target or a mutated 3′ UTR target using Lipofectamine 2000 per the manufacturer's protocol. Approximately 5 h post transfection, the small molecule of interest was added in complete growth medium, and the cells were incubated for another 20 h. Luciferase activity was then measured using a Dual Glo Luciferase Assay System (Promega) per the manufacturer's protocol. The values reported are the average of at least three measurements, and errors are the corresponding standard deviations.
# miR-210 = assay: qRT-PCR of mature miRNA; assay type: cell-based, human; settings: 500 nM, ACHN renal cancer cell line
# Description: as §3
structure (smiles),measurement,setting,value
CCCN(CC(=O)N(CCC)CC(=O)N(CC(N)=O)Cc1cn(CCCNC(=O)CCCOc2c(C(C)(C)C)cc(-c3nc4cc(N5CCN(C)CC5)ccc4[nH]3)cc2C(C)(C)C)nn1)C(=O)CCCOc1cccc(-c2nc3ccc(-c4nc5ccc(N6CCN(C)CC6)cc5[nH]4)cc3[nH]2)c1 [BSH-2-H],Kd,"[1]; read-out: Dissociation constants, 5′UUU/3′AUA",1170 ± 279 nM
same,Kd,5′CGA/3′GGU RNA,900 ± 200 nM
same,Kd,5′CGAUU/3′GGUAUA RNA,85 ± 11 nM
same,production of mature microRNA-96,miR-96; 50 nM,significantly inhibited production of the mature microRNA-96
same,effect on mature miRNA-96 levels,"miR-96; 1 μM, 0.5 μM and 0.05 μM, 24 hours",reduced mature miRNA-96 levels in a dose-dependent fashion
same,Kd,H Hairpin (DNA hairpin),> 50000 nM
same,Kd,C1 (cassette RNA),> 4000 nM
same,production of pre-microRNA-96,pre-miR-96,inhibiting production of the pre-microRNA-96
same,effect on apoptosis in healthy breast cells,[2],no effect on apoptosis
same,increase in FOXO1 protein expressed,FOXO1 protein,2.5 fold
same,production of pri-microRNA-96,pri-miR-96; 50 nM,boosting production of the pri-microRNA-96
same,increase of pri-miRNA 96,pri-miR-96; 24 hours,about 2.3 fold
CN1CCN(c2ccc3nc(-c4ccc5nc(-c6cccc(OCCCC(=O)NCCCN=[N+]=[N-])c6)[nH]c5c4)[nH]c3c2)CC1 [Compound 2],binding affinity for the miR-96 precursor,[1],lack of binding affinity
same,effect on miR-96 expression,"miR-96; 40 μM, 20 h",do not affect
same,effect on miR-183 expression,miR-183,do not affect
same,effect on miR-182 expression,miR-182,do not affect
same,induction of apoptosis,MCF7 cells,do not induce apoptosis
same,effect on luciferase expression,[3],no effect
same,reduction of formation of miR-210,miR-210,60%
C#CCCCC(=O)NCC1O[C@H](O[C@@H]2C(N)C[C@@H](N)C(O[C@@H]3OC(CO)[C@H](O)C(N)C3O)[C@H]2O)C(O)[C@@H](O)[C@@H]1O (some centres unmarked) [Compound 3],effect on miR-96 expression,miR-96; 200 μM,"a less, but significant, effect"
CN1CCN(c2ccc3nc(-c4ccc(OCCCC(=O)NCCCN=[N+]=[N-])cc4)[nH]c3c2)CC1 [Compound 5],binding affinity for the miR-96 precursor,[1],lack of binding affinity
same,effect on miR-96 expression,"miR-96; 40 μM, 20 h",do not affect
same,effect on miR-183 expression,miR-183,do not affect
same,effect on miR-182 expression,miR-182,do not affect
same,induction of apoptosis,MCF7 cells,do not induce apoptosis
same,effect on luciferase expression,[3],no effect
